Measured values published in patent publication US10117912B2 (priority 2013, dated 2018).
Converted amounts (≈) assume the structure as drawn. Like-named read-outs stand apart in the source and are kept apart here.

Columns and labels:
[1] = tested on: alkaline phosphatase from bovine intestinal mucosa; assay type: biochemical
[2] = tested on: MDCKII-wt monolayer
[3] = Equilibrium solubility of phenytoin in assay buffer; assay type: physicochemical
Experimental: 10 mg of phenytoin was added to a 20 mL scintillation vial containing 2 mL assay buffer, pH 7.4 (122 mM NaCl, 25 mM NaHCO3, 10 mM glucose, 10 mM HEPES, 3 mM KCl, 1.2 mM MgSO4, 1.4 mM CaCl2, and 0.4 mM K2HPO4). The vials were placed in a shaker incubator at different temperatures (28, 32 and 37° C.). After 48 h, drug suspension from vial was centrifuged at 13000 g for 20 min. Using a 0.2 μm syringe filter, the supernatant was filtered into a fresh glass vial and analyzed using HPLC. The experiments were performed in triplicate.

[4] = prodrug S=6.1 with 0.6 IU/mL enzyme, 3 h

Compound: O=C1NC(c2ccccc2)(c2ccccc2)C(=O)N1COP(=O)(O)O [fosphenytoin, Fosphenytoin disodium]
- kcat [1]: 2880 s⁻¹
- extent of conversion of prodrug to drug ([1]; fosphenytoin 586 μM, various enzyme concentrations): Complete conversion
- Vmax (Michaelis-Menten) ([1]; pH 7.4): 51.1 ± 1.8 µM/min
- Km ([1]; pH 7.4, read-out: KM (Michaelis-Menten)): 828 ± 81.6 µM
- membrane integrity (TEER) ([2]; 3 h treatment, pH 7.4, 32° C., enzyme alone or prodrug alone at S=0.8 or S=6.1): not compromised
- TEER value [2, 4]: > 60 ohms/cm^2
- membrane integrity (TEER), prodrug with enzyme [2, 4]: minor compromise of intercellular tight junctions

Compound: O=C1NC(=O)C(c2ccccc2)(c2ccccc2)N1 [phenytoin]
- effect of temperature on solubility ([3]; 28° C. and 37° C., pH 7.4): unaffected
- solubility at 48 h ([3]; aqueous buffer, thermodynamic from solid, pH 7.4 and 32° C., assay buffer, 48 h): 126 ± 5.6 µM (≈ 31.9 µg/mL)

Compound: alkaline phosphatase
- membrane integrity (TEER) ([2]; pH 7.4): not compromised
